Experimental data published in US20250011311A1, “AMIDO HETEROAROMATIC COMPOUNDS” (AstraZeneca AB, priority 2022, published 2025).

Columns and labels:
[1] = target: recombinant 17bHSD4 (M1-N311) (Homo sapiens (Human), UniProt P51659); test: In Vitro 17bHSD4 Enzyme Assay; assay type: biochemical; conditions: 40 nM 17bHSD4, 0.125 mM NAD, 15 μM Estradiol, 1.5 h; NADH fluorescence; read-out: 17HSD17b4 Enzyme assay IC50
CYP2C9 = CYP2C9 (Homo sapiens (Human), UniProt P11712); test: Assay B: Cytochrome P450 Inhibition 2C9
[2] = target: over expressed HSD17β13 in HEK293S cells (Homo sapiens (Human), UniProt Q7Z5P4); test: In Vitro 17bHSD13 Cell Assay; assay type: cell-based; conditions: HEK293S cells over expressing HSD17β13; estradiol to estrone conversion, 18 h, LC-MS/MS; read-out: 17bHSD1713 Cell assay IC50
Outline: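 HEK293S cells overexpressing HSD17β13 convert estradiol to estrone; product read by LC-MS/MS (APCI, positive MRM) as AUC ratio estrone/(estrone+estradiol). Effect normalised between DMSO and maximal inhibition by a known inhibitor control; IC50 from curve fit.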

Sequence of CYP2C9 (P11712 whole entry): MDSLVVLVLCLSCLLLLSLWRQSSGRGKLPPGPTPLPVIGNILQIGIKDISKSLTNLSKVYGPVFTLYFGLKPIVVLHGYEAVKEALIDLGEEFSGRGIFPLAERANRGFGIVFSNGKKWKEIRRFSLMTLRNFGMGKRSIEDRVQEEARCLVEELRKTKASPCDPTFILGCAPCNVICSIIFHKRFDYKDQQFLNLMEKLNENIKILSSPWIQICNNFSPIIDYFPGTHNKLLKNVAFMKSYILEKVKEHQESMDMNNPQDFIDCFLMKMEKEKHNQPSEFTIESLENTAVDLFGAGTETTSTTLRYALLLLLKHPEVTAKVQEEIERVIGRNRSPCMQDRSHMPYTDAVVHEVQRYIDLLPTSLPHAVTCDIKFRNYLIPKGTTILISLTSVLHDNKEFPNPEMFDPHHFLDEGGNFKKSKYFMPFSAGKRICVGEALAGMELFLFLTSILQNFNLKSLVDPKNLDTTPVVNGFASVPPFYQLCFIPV
Sequence of recombinant 17bHSD4 (M1-N311) (P51659 1-311): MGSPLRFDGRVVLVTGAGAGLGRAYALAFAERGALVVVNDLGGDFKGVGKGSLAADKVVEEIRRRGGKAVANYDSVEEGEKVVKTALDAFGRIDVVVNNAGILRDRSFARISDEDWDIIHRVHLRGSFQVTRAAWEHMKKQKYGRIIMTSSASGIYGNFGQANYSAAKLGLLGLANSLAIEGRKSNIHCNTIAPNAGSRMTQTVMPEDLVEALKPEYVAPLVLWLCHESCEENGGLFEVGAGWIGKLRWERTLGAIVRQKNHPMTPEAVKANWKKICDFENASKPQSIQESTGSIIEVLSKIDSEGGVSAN
Sequence of over expressed HSD17β13 in HEK293S cells (Q7Z5P4 20-300): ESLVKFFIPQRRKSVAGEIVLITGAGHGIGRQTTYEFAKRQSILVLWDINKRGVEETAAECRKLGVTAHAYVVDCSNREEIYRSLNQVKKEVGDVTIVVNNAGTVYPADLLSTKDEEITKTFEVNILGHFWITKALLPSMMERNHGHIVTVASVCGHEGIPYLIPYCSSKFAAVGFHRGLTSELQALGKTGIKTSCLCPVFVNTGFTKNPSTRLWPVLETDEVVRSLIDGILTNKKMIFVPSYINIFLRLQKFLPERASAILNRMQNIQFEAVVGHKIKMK

Compound	IC50 [1] [µM]	IC50 (CYP2C9) [µM]	IC50 [2] [µM]
O=C(c1noc(-c2cc(F)c(F)c(O)c2F)n1)N1CC(Oc2ccccc2)C1 [Example 2, (3-Phenoxyazetidin-1-yl)(5-(2,4,5-trifluoro-3-hydroxyphenyl)-1,2,4-oxadiazol-3-yl)methanone]	6.7	1.8	1.61
COc1cccc(N2CCN(C(=O)c3noc(-c4cc(F)c(F)c(O)c4F)c3C#N)CC2)c1 [Example 16, 3-(4-(3-Methoxyphenyl)piperazine-1-carbonyl)-5-(2,4,5-trifluoro-3-hydroxyphenyl)isoxazole-4-carbonitrile]	15.4	0.8	4.56
N#Cc1cccc2c1CCN(C(=O)c1noc(-c3c(F)c(O)c(F)c(F)c3Br)n1)C2 [Example 30, 2-(5-(2-Bromo-3,4,6-trifluoro-5-hydroxyphenyl)-1,2,4-oxadiazole-3-carbonyl)-1,2,3,4-tetrahydroisoquinoline-5-carbonitrile]	17.2	3.9	2.52
CC1(C)CN(C(=O)c2noc(-c3cc(F)c(F)c(O)c3F)n2)CC(C)(C)O1 [Example 32, (2,2,6,6-Tetramethylmorpholino)(5-(2,4,5-trifluoro-3-hydroxyphenyl)-1,2,4-oxadiazol-3-yl)methanone]	> 50	8.3	0.3
O=C(c1noc(-c2cc(F)c(F)c(O)c2F)n1)N1CCOC2CCCC21 (stereo not drawn) [Example 41, (Hexahydrocyclopenta[b][1,4]oxazin-4(4aH)-yl)(5-(2,4,5-trifluoro-3-hydroxyphenyl)-1,2,4-oxadiazol-3-yl)methanone]	> 50	15.4	0.09
O=C(c1noc(-c2cc(F)c(F)c(O)c2F)n1)N1CCN(CCCOc2ccc(F)cc2)CC1 [Example 57, (4-(3-(4-Fluorophenoxy)propyl)piperazin-1-yl)(5-(2,4,5-trifluoro-3-hydroxyphenyl)-1,2,4-oxadiazol-3-yl)methanone]	32.3	3.7	0.14
C[C@@H]1CN(C(=O)c2noc(-c3cc(F)c(F)c(O)c3F)n2)C[C@@H](C)O1 [Example 88, ((2R,6R)-2,6-Dimethylmorpholino)(5-(2,4,5-trifluoro-3-hydroxyphenyl)-1,2,4-oxadiazol-3-yl)methanone]	36.4	16.8	0.19
O=C(c1noc(-c2cc(F)c(F)c(O)c2F)n1)N1CC[C@H](c2ccc(Cl)cc2)C1 [Example 95, (R)-(3-(4-Chlorophenyl)pyrrolidin-1-yl)(5-(2,4,5-trifluoro-3-hydroxyphenyl)-1,2,4-oxadiazol-3-yl)methanone]	6.9	1.1	0.21
O=C(c1noc(-c2cc(F)c(F)c(O)c2F)n1)N1CC[C@@H](Oc2ccccc2)C1 [Example 98, (R)-(3-Phenoxypyrrolidin-1-yl)(5-(2,4,5-trifluoro-3-hydroxyphenyl)-1,2,4-oxadiazol-3-yl)methanone]	9.5	0.8	0.52
O=C(Nc1ccnn1C1CCCCC1)c1cc(-c2ccc(F)c(O)c2)on1 [Example 99, N-(1-Cyclohexyl-1H-pyrazol-5-yl)-5-(4-fluoro-3-hydroxyphenyl)isoxazole-3-carboxamide]	41.8	> 30	15.8
C[C@@H]1CN(C(=O)c2noc(-c3c(F)c(O)c(F)c(F)c3I)n2)C[C@H](C)O1 [Example 108, ((2S,6R)-2,6-Dimethylmorpholino)(5-(2,4,5-trifluoro-3-hydroxy-6-iodophenyl)-1,2,4-oxadiazol-3-yl)methanone]	> 50	7	0.49

The next lines start with the values.

IC50 [1] [µM]	IC50 (CYP2C9) [µM]	IC50 [2] [µM]	Compound
> 50	5.7	5.55	O=C(c1noc(-c2cc(C(F)(F)F)[nH]c(=O)c2)n1)N1CCC(c2ccccc2)C1 (stereo not drawn) [Example 9, 4-(3-(3-Phenylpyrrolidine-1-carbonyl)-1,2,4-oxadiazol-5-yl)-6-(trifluoromethyl)pyridin-2(1H)-one]
41.4	1.1	0.26	N#Cc1c(C(=O)N2CCN(CCCOc3ccc(F)cc3)CC2)noc1-c1cc(F)c(F)c(O)c1F [Example 14, 3-(4-(3-(4-Fluorophenoxy)propyl)piperazine-1-carbonyl)-5-(2,4,5-trifluoro-3-hydroxyphenyl)isoxazole-4-carbonitrile]
17.8	0.4	0.79	N#Cc1c(C(=O)N2Cc3ccc(F)cc3C2)noc1-c1cc(F)c(F)c(O)c1F [Example 18, 3-(5-Fluoroisoindoline-2-carbonyl)-5-(2,4,5-trifluoro-3-hydroxyphenyl)isoxazole-4-carbonitrile]
> 50	1.2	1.12	C[C@@H]1CN(C(=O)c2noc(-c3cc(F)c(F)c(O)c3F)c2C#N)C[C@H](C)O1 [Example 22, 3-((2R,6S)-2,6-Dimethylmorpholine-4-carbonyl)-5-(2,4,5-trifluoro-3-hydroxyphenyl)isoxazole-4-carbonitrile]
17.6	0.2	0.44	N#Cc1ccc2c(c1)CN(C(=O)c1noc(-c3cc(F)c(F)c(O)c3F)c1C#N)CC2 [Example 29, 3-(7-Cyano-1,2,3,4-tetrahydroisoquinoline-2-carbonyl)-5-(2,4,5-trifluoro-3-hydroxyphenyl)isoxazole-4-carbonitrile]
11.5	5	1.06	N#Cc1ccc2c(c1)CCN(C(=O)c1noc(-c3cc(F)c(F)c(O)c3F)n1)C2 [Example 31, 2-(5-(2,4,5-Trifluoro-3-hydroxyphenyl)-1,2,4-oxadiazole-3-carbonyl)-1,2,3,4-tetrahydroisoquinoline-6-carbonitrile]
8.5	0.2	1.21	O=C(c1ccc(-c2cc(F)c(F)c(O)c2F)s1)N1CC[C@H](c2ccccc2)C1 [Example 33, (R)-(3-Phenylpyrrolidin-1-yl)(5-(2,4,5-trifluoro-3-hydroxyphenyl)thiophen-2-yl)methanone]
24	14.8	0.27	C[C@@H]1CC[C@H](C)N1C(=O)c1noc(-c2cc(F)c(F)c(O)c2F)n1 [Example 38, ((2R,5S)-2,5-Dimethylpyrrolidin-1-yl)(5-(2,4,5-trifluoro-3-hydroxyphenyl)-1,2,4-oxadiazol-3-yl)methanone]
39	13.9	0.24	O=C(c1noc(-c2cc(F)c(F)c(O)c2F)n1)N1CC2CCC(C1)C2(F)F [Example 43, (8,8-difluoro-3-azabicyclo[3.2.1]octan-3-yl)(5-(2,4,5-trifluoro-3-hydroxyphenyl)-1,2,4-oxadiazol-3-yl)methanone]
47.4	1	0.23	CC(C)CC1CN(C(=O)c2noc(-c3cc(F)c(F)c(O)c3F)n2)CCO1 (stereo not drawn) [Example 47, (2-Isobutylmorpholino)(5-(2,4,5-trifluoro-3-hydroxyphenyl)-1,2,4-oxadiazol-3-yl)methanone]
> 50	17.2	0.22	C[C@@H]1CN(C(=O)c2noc(-c3cc(F)c(F)c(O)c3F)n2)[C@H](C)CO1 [Example 50, ((2R,5R)-2,5-Dimethylmorpholino)(5-(2,4,5-trifluoro-3-hydroxyphenyl)-1,2,4-oxadiazol-3-yl)methanone]
4	3	0.53	Cn1nnc(-c2cnc(N3CCN(C(=O)c4noc(-c5cc(F)c(F)c(O)c5F)n4)CC3)c(Cl)c2)n1 [Example 67, (4-(3-Chloro-5-(2-methyl-2H-tetrazol-5-yl)pyridin-2-yl)piperazin-1-yl)(5-(2,4,5-trifluoro-3-hydroxyphenyl)-1,2,4-oxadiazol-3-yl)methanone]
48.7	2.4	0.11	O=C(c1noc(-c2cc(F)c(F)c(O)c2F)n1)N1CCN(CCOc2ccc(Br)cn2)CC1 [Example 69, (4-(2-((5-Bromopyridin-2-yl)oxy)ethyl)piperazin-1-yl)(5-(2,4,5-trifluoro-3-hydroxyphenyl)-1,2,4-oxadiazol-3-yl)methanone]
21.1	1.8	3	O=C(c1noc(-c2cc(F)c(F)c(O)c2F)n1)N1CC(c2ccc(F)cc2)C1 [Example 74, (3-(4-Fluorophenyl)azetidin-1-yl)(5-(2,4,5-trifluoro-3-hydroxyphenyl)-1,2,4-oxadiazol-3-yl)methanone]
44.8	2.6	0.14	CCCC1CCN(C(=O)c2noc(-c3cc(F)c(F)c(O)c3F)n2)C1 (stereo not drawn) [Example 76, (3-Propylpyrrolidin-1-yl)(5-(2,4,5-trifluoro-3-hydroxyphenyl)-1,2,4-oxadiazol-3-yl)methanone]
22.2	1.3	0.7	O=C(c1noc(-c2cc(F)c(F)c(O)c2F)n1)N1CC[C@H](Oc2ccccc2)C1 [Example 93, (S)-(3-Phenoxypyrrolidin-1-yl)(5-(2,4,5-trifluoro-3-hydroxyphenyl)-1,2,4-oxadiazol-3-yl)methanone]
23.6	1.2	1.42	O=C(c1noc(-c2cc(F)c(F)c(O)c2F)n1)N1CCCC(OCc2ccccc2)C1 (stereo not drawn) [Example 94, (3-(Benzyloxy)piperidin-1-yl)(5-(2,4,5-trifluoro-3-hydroxyphenyl)-1,2,4-oxadiazol-3-yl)methanone]
